“Also recorded” adds a separate entry of the source. Where two headings read alike, the source gives them in different places. Non-standard residues stand in square brackets, D forms with d. Residues, ends and D or L forms follow the SMILES beside them. *: point of attachment. DOTA = O=C(O)CN1CCN(CC(=O)O)CCN(CC(=O)*)CCN(CC(=O)O)CC1; pY = N[C@@H](Cc1ccc(OP(=O)(O)O)cc1)C(=O)O; Nle = CCCC[C@H](N)C(=O)O
Experiments:
[1] = cited from earlier work
[2] = Biodistribution of ^111In-labeled peptides in B16-F1 melanoma-bearing mice; assay type: in vivo, mouse (B6D2F1); conditions: female, iv, total radioactivity; for tissue to tissue ratio at 24 h / tissue to tissue ratio at 48 h: B6D2F1 (C57BL/6 × DBA/2F1 hybrids), mouse; for tissue to tissue ratio at 24 h / tissue to tissue ratio at 48 h / tissue to tissue ratio at 4 h: 185 kBq, mean tumor uptake divided by mean kidney uptake; for tissue to tissue ratio at 24 h: 24 h postinjection; for tissue to tissue ratio at 48 h: 48 h postinjection; for tissue to tissue ratio at 4 h / tissue uptake at 4 h: B6D2F1, mouse; for tissue to tissue ratio at 4 h: 4 h postinjection; for tissue uptake at 4 h: ^111In-labeled peptide, 185 kBq i.v., mean ± SEM of three experiments, n = 5 animals each
Procedure: (§1) About 5 × 10^5 B16-F1 cells were implanted subcutaneously to female B6D2F1 mice (C57BL/6 × DBA/2F1 hybrids; breeding pairs obtained from IFFA-CREDO, France). Seven days later, 185 kBq of ^111In-labeled ligand in 200 µL PBS/0.1% BSA were injected intravenously into the lateral tail vein of each mouse. Control mice were injected with a mixture of the tracer and 50 µg α-MSH to determine the non-specific uptake of radioligand. The animals were sacrificed 4, 24, and 48 h postinjection, dissected, and the tissues of interest collected, rinsed of excess blood, and weighed. The radioactivity emitted by each organ was measured in a γ-counter to determine the tissue uptake as percentage of the injected dose (ID) per gram of tissue. The total of injected radioactivity per animal was determined by extrapolation from the counts of a standard collected from the injection solution for each animal. Urine samples were collected at 10, 15, and 20 min and 4 h after injection and kept frozen at −80°C until use. Urine (1 vol) was mixed with methanol (2 vol) to precipitate proteins, and the supernatant was analyzed by RP-HPLC/γ-detection, as described in Ref. ([12]).
(§2) Results are expressed as means ± SEM, unless otherwise stated. The statistical evaluation of data was performed using the one- or two-way ANOVA test. When significant overall effects were obtained by ANOVA, multiple comparisons were made with the Bonferroni correction. P < 0.05 was considered statistically significant. The area under the curve (AUC) was calculated with the GraphPad Prism 6 software for the indicated period of time, using the mean tissue uptake value at each time point.

MC1R = conditions: cited from earlier work
[3] = cited from earlier work; remark: listed apart in the source
Text: Another approach to reduce uptake of radioactivity by the kidneys is coinjection of radiopeptides with basic amino acids. […] This method was first applied for ^111In-labeled DTPA-octreotide ([31], [32]) and ^90Y-labeled DOTA-[Tyr^3]-octreotide ([32], [33]).

[4] = parameters: method as in 2 sources, ref 37 = [37]; PMID 9574445; doi:10.3109/08860229809045104; 37 Kok RJ Haas M Moolenaar F de Zeeuw D Meijer DK . Drug delivery to the kidneys and the bladder with the low molecular weight protein lysozyme . Ren Fail ( 1998 ) 20 : 211 – 7 . 10.3109/0886022980904 ||| ref 38 = [38]; PMID 11578896; doi:10.1016/S0969-8051(01)00241-4; 38 Akizawa H Arano Y Mifune M Iwado A Saito Y Mukai T Effect of molecular charges on renal uptake of 111 In-DTPA-conjugated peptides . Nucl Med Biol ( 2001 ) 28 : 761 – 8 . 10.1016/S0969-8051(01)00241; conditions: urinary excretion; cited from earlier work
[5] = tested on: B16-F1 tumor-bearing mice; assay: Biodistribution of ^111In-labeled peptides in B16-F1 melanoma-bearing mice; assay type: in vivo, mouse (B6D2F1)
Procedure: as §1, §2

B16-F1 cells = assay: Internalization by cultured B16-F1 cells; assay type: cell-based, mouse
Procedure: B16-F1 cells were seeded in six-well plates and incubated overnight in MEM at 37°C. For the internalization experiments, MEM was replaced by 1 mL MBM (see above) as internalization buffer. After a 1-h incubation at 37°C, 74 kBq of radioligand (^111In-labeled peptides) was added, and the plates were incubated for different time periods. Non-specific internalization was determined by addition of 50 µL of a 1 µM α-MSH solution to the incubation mixture. After the desired incubation times, the cells were extensively washed with MBM kept at 37°C to remove excess radioligand. Incubation in 2 mL ice-cold acid buffer (acetate-buffered Hank’s balanced salt solution, pH 5) for 10 min allowed dissociation of surface-bound ligand. After collection of the acid buffer fraction, the cells were rinsed once with cold MBM, and the washings were pooled with the acid buffer fraction. The cells were washed again with MBM kept at 37°C, lysed in a 1% Triton X-100 solution, and finally transferred to tubes for quantification. The radioactivity of all collected fractions was measured in a γ-counter. A counting plate underwent the same treatment as the plate incubated for the longest time, but its cells were detached with 0.02% EDTA in PBS instead of being lysed with the Triton X-100 solution. Cells from three wells were collected, counted, and thus allowed for normalization of the results obtained. Results were expressed as percent of the added dose per million cells.
Figure 3 Determination of internalization of [^111In] DOTA-NAP-D-Asp-D-Asp (A) and [^111In]DOTA-Phospho-MSH2-9 (B) by cultured B16-F1 cells exposed to the peptides at 37°C for 0.5, 2, and 3.5 h. Surface-bound radioligand was released by an acid buffer wash, and internalized radioligand was determined by lysing cells with detergent. Results are expressed in percent of the added dose per million cells.

[6] = kidney, read-out: Kidney uptake

CCCC[C@H](NC(C)=O)C(=O)N[C@@H](CC(=O)O)C(=O)N[C@@H](Cc1c[nH]cn1)C(=O)N[C@H](Cc1ccccc1)C(=O)N[C@@H](CCCNC(=N)N)C(=O)N[C@@H](Cc1c[nH]c2ccccc12)C(=O)NCC(=O)N[C@@H](CCCCNC(=O)CN1CCN(CC(=O)O)CCN(CC(=O)O)CCN(CC(=O)O)CC1)C(N)=O [[^111In]DOTA-NAP-amide, metal not drawn, reference compound]
Metabolite in vivo (in words) ([1]; 4 h after injection, ref Froidevaux and Eberle, unpublished): Lys([^111In]DOTA), a metabolite of internalized [^111In]DOTA-NAP-amide occurring 4 h after injection
tissue to tissue ratio at 24 h [2]: 0.96
tissue to tissue ratio at 48 h [2]: 0.91
tissue to tissue ratio at 4 h [2]: 1.63
tissue uptake at 4 h [2, 6]: 4.77 ± 0.26 %ID/g
tissue uptake at 4 h ([2]; tumor, read-out: Tumor uptake): 7.77 ± 0.35 %ID/g

[Nle^4, D-Phe^7]-α-MSH [NDP-MSH]
Binding affinity (in words) (MC1R; linear analog compared with α-MSH): increased binding affinity

NCCCC[C@@H](N)C(=O)O [D-Lys]
Effect of coinjection on tumor uptake (in words) [3]: without affecting tumor uptake
Reduction of kidney uptake of radiopeptides by coinjection ([3]; coinjected with ^111In-/^90Y-labeled octreotide peptides): up to 65%

Ac-Nle-cyclo[Asp-His-D-Phe-Arg-Trp-Lys]-NH2 (sidechain bridge or staple) [melanotan II]
Binding affinity (in words) (MC1R; cyclic analog compared with α-MSH): increased binding affinity

succinylated lysozyme: succinylated lysozyme, compared to the non-succinylated molecule with six amino groups
Excretion compared to non-succinylated molecule (in words) [4]: dramatically increased

CCCC[C@H](NC(=O)[C@H](Cc1ccc(OP(=O)(O)O)cc1)NC(=O)CNC(=O)CN1CCN(CC(=O)O)CCN(CC(=O)O)CCN(CC(=O)O)CC1)C(=O)N[C@@H](CC(=O)O)C(=O)N[C@@H](Cc1c[nH]cn1)C(=O)N[C@H](Cc1ccccc1)C(=O)N[C@@H](CCCNC(=N)N)C(=O)N[C@@H](Cc1c[nH]c2ccccc12)C(N)=O [[^111In]DOTA-Phospho-MSH2-9] [metal not drawn] ({DOTA}-G[pY][Nle]DH[dF]RW-NH2)
Effect of coinjection of α-MSH on melanoma uptake (in words) ([5]; 50 µg α-MSH coinjected, data not shown): significantly blocked melanoma uptake
Clearance from the kidney (in words) ([5]; 4–48 h): slightly slower
Uptake by other organs (in words) ([5]; 4–48 h): very low and did not exceed the values found with [^111In]DOTA-NAP-amide
Kidney retention lower than that of [^111In]DOTA-NAP-amide ([5]; 4 h after injection): 44%
Kidney uptake as percentage of that of the reference peptide ([5]; 4 h after injection): 56%
Retention of radioactivity by the tumor ([5]; 24 h postinjection, decreased to % of 4 h value): 40%
Tumor-to-kidney ratio compared with other peptides (in words) ([5]; AUC (4–48 h) or overall comparison): threefold higher; also recorded: most favorable tumor-to-kidney ratio of a linear DOTA-MSH radiopeptide reported to date
Kidney uptake/retention compared with reference (in words) ([5]; in vivo): markedly lower
Tumor uptake compared with reference (in words) ([5]; in vivo, B16-F1 tumors): almost identical with that of [^111In]DOTA-NAP-amide; also recorded: about as high as for the reference compound
Kidney uptake compared with other peptides (in words) ([5]; peptides of net charge −2 to +2, five of the eight peptides from ref 14): slightly lower kidney uptake than [^111In-DOTA-Nle^4,Asp^5,D-Phe^7,Lys^11(Suc)]-α-MSH4-11-carboxylate

[DOTA-Nle^4,Asp^5,D-Phe^7,Lys^11(Suc)]-α-MSH4-11-carboxylate
Kidney uptake (in words) ([1]; in vivo): reduced kidney uptake
Tumor uptake (in words) ([1]; in vivo): tumor uptake was also affected
Tumor-to-kidney ratio (in words) ([1]; in vivo): even lower than that of the parent molecule

CCCC[C@H](NC(C)=O)C(=O)N[C@@H](CC(=O)O)C(=O)N[C@@H](Cc1c[nH]cn1)C(=O)N[C@H](Cc1ccccc1)C(=O)N[C@@H](CCCNC(=N)N)C(=O)N[C@@H](Cc1c[nH]c2ccccc12)C(=O)NCC(=O)N[C@@H](CCCCNC(=O)CN1CCN(CC(=O)O)CCN(CC(=O)O)CCN(CC(=O)O)CC1)C(=O)N[C@H](CC(=O)O)C(=O)N[C@H](CC(=O)O)C(=O)O [[^111In]DOTA-NAP-D-Asp-D-Asp] [metal not drawn] (Ac-[Nle]DH[dF]RWGK(DOTA)[dD][dD]-OH; N-terminus and C-terminus assumed)
Internalization profile (in words) (B16-F1 cells; 37°C, 0.5, 2 and 3.5 h, 74 kBq radioligand): excellent internalization profiles
Internalization plateau (in words) (B16-F1 cells; 37°C, 3.5 h): not quite reached
Uptake by other organs (in words) ([5]; 4–48 h): Other organs did not substantially accumulate the radiopeptide
Kidney uptake higher than that of [^111In]DOTA-NAP-amide ([5]; 4 h after injection): 25%
Radioactive load of kidney higher than with the reference peptide ([5]; 24 h after injection): 70%

CCCC[C@H](NC(C)=O)C(=O)N[C@@H](CC(=O)O)C(=O)N[C@@H](Cc1c[nH]cn1)C(=O)N[C@H](Cc1ccccc1)C(=O)N[C@@H](CCCNC(=N)N)C(=O)N[C@@H](Cc1c[nH]c2ccccc12)C(=O)NCC(=O)N[C@@H](CCCCNC(=O)CN1CCN(CC(=O)O)CCN(CC(=O)O)CCN(CC(=O)O)CC1)C(=O)N[C@H](CC(=O)O)C(=O)N[C@H](CC(=O)O)C(=O)O [[^111In]DOTA-NAP-D-Asp-D-Asp, metal not drawn] (Ac-[Nle]DH[dF]RWGK(DOTA)[dD][dD]-OH; N-terminus and C-terminus assumed)
tissue to tissue ratio at 24 h [2]: 0.15
tissue to tissue ratio at 48 h [2]: 0.11
tissue to tissue ratio at 4 h [2]: 0.32
tissue uptake at 4 h [2, 6]: 5.95 ± 0.85 %ID/g
tissue uptake at 4 h ([2]; tumor, read-out: Tumor uptake): 1.93 ± 0.11 %ID/g

CCCC[C@H](NC(=O)[C@H](Cc1ccc(OP(=O)(O)O)cc1)NC(=O)CNC(=O)CN1CCN(CC(=O)O)CCN(CC(=O)O)CCN(CC(=O)O)CC1)C(=O)N[C@@H](CC(=O)O)C(=O)N[C@@H](Cc1c[nH]cn1)C(=O)N[C@H](Cc1ccccc1)C(=O)N[C@@H](CCCNC(=N)N)C(=O)N[C@@H](Cc1c[nH]c2ccccc12)C(N)=O [[^111In]DOTA-Phospho-MSH2-9, metal not drawn] ({DOTA}-G[pY][Nle]DH[dF]RW-NH2)
tissue to tissue ratio at 24 h [2]: 1.55
tissue to tissue ratio at 48 h [2]: 1.16
tissue to tissue ratio at 4 h [2]: 2.75
tissue uptake at 4 h [2, 6]: 2.68 ± 0.18 %ID/g
tissue uptake at 4 h ([2]; tumor, read-out: Tumor uptake): 7.33 ± 0.47 %ID/g

[^111In-DOTA-Nle^4,Asp^5,D-Phe^7,Lys^11(Suc)]-α-MSH4-11-carboxylate
AUC (4–48 h), tumor-to-kidney ([1]; in vivo): 0.62
Kidney uptake (in words) ([1]; in vivo): lowest kidney uptake
Tumor uptake (in words) ([1]; in vivo): reduced uptake by melanoma tumors
MC1R affinity (in words) (MC1R): lower MC1R affinity

From publication PMC5405074, “Receptor-Mediated Melanoma Targeting with Radiolabeled α-Melanocyte-Stimulating Hormone: Relevance of the Net Charge of the Ligand” (Frontiers in Endocrinology, 2017)
